Measurements published in patent US20250282798A1, “HETEROARYL-SUBSTITUTED BICYCLIC COMPOUND AND USE THEREOF” (Medshine Discovery Inc., priority 2022, published 2025).

Key:
Type in all cases: in vitro ADME
MDR1-MDCK II cell line = experiment: Permeability evaluation in MDR1-MDCK II cells
Protocol: (§1) Cell line: The MDR1-MDCK II cell line authorized by Piet Borst's laboratory at the Netherlands Cancer Research Institute was used in this assay as an in vitro model for the permeability evaluation assay. The cells were inoculated in a Transwell-96 well cell plate at a density of 2.3×10^5 cells/cm^2, and cultured in a carbon dioxide incubator for 4-7 days before use in the transport assay.
(§2) The administration concentration of the test sample was 2.00 μM.
(§3) Test direction and number of parallel samples: bidirectional A-B and B-A, 2 parallels
(§4) Transport buffer (TB): HBSS solution containing 10 mM HEPES (pH 7.40±0.05)
(§5) Incubation conditions: 37±1° C., 5% CO2, incubated for 150 minutes
(§6) Control compounds: Nadolol and metoprolol were used as low-permeability and high-permeability control compounds. Digoxin was used as a substrate of P-glycoprotein. The administration concentration of nadolol and metoprolol was 2.00 μM, and the administration concentration of digoxin was 10.0 μM.
(§7) After the transport assay, the integrity of the MDR1-MDCK II cell layer was assayed by the Lucifer Yellow Rejection Assay. The remaining solution in the apical and basolateral wells was removed. 75 μL of TB containing 100 μM Lucifer Yellow was added to the apical well, and 250 μL of TB was added to the basolateral well. The cell plate was incubated in a cell culture incubator at 37±1° C., 5% CO2 and saturated humidity for 30 minutes. Then, 20 μL of sample was taken from the apical well and mixed with 60 μL of TB, and 80 μL of sample was taken from the basolateral well. The relative fluorescence unit (RFU) was measured at 425/528 nm (excitation/emission) using a microplate reader.
(§8) In this assay, the sample analysis of the test samples and control compounds of nadolol, metoprolol, and digoxin was performed by liquid chromatography-tandem mass spectrometry (LC-MS/MS). The retention time of the analytes and internal standards, chromatogram acquisition, and chromatogram integration were processed using the software Analyst (Sciex, Framingham, MA, USA). The sample analysis was semi-quantitatively determined using the peak area of analyte and the peak area of internal standard.
(§9) VR is the volume of the receiver end solution (0.075 mL for side A, and 0.25 mL for side B); Area is the relative surface area of the cell monolayer (0.0804 cm2); Time is the incubation time (9000 s); C0 is the peak area ratio of the compound at the administration end; VD is the volume of the administration end (0.075 mL for side A, and 0.25 mL for side B); CD and CR are the peak area ratios of the compound at the administration end and the receiver end, respectively.

MDR1 (P-glycoprotein) = experiment: Permeability evaluation in MDR1-MDCK II cells; conditions: dog, pH 7.4, 2.00 μM, 150 minutes
Protocol: as §1, §2, §3, §4, §5, §6, §7, §8, §9

[1] = Permeability evaluation in MDR1-MDCK II cells; conditions: dog
Protocol: as §1, §2, §3, §4, §5, §6, §7, §8, §9

Row | Structure (SMILES) | Efflux ratio (MDR1-MDCK II cell line; 2.00 μM, 150 minutes) | Permeability Papp A to B (MDR1-MDCK II cell line; 2.00 μM, 150 minutes) | Permeability Papp B to A (MDR1-MDCK II cell line; 2.00 μM, 150 minutes) | Conclusion of the permeability (MDR1-MDCK II cell line; class by Papp) | efflux ratio at 150 min, 2 μM (MDR1 (P-glycoprotein)) | Papp A→B at 150 min, 2 μM ([1]; pH 7.4, 2.00 μM, 150 minutes) [×10⁻⁶ cm/s] | Papp B→A at 150 min, 2 μM ([1]; pH 7.4, 2.00 μM, 150 minutes) [×10⁻⁶ cm/s] | Papp at 150 min, 2 μM ([1]; pH 7.4, class by Papp, read-out: Conclusion of the permeability) [×10⁻⁶ cm/s]
1 | Cn1ccc2c(-c3ncc(Nc4ccc5c(n4)OC[C@@H]4COCCN54)c4c3CNC4=O)ccnc21 [Compound 4] | 4.97 | 5.20 10^−6 cm/s | 25.84 10^−6 cm/s | Medium (Medium permeability 1.0 < Papp < 5.5 (×10^−6 cm/s)) |  |  |  | 
2 | O=C1NCc2c(-c3cnc4cc(F)ccn34)ccc(Nc3ccc4c(n3)OC[C@@H]3COCCN43)c21 [Compound 8] |  |  |  |  | 7.19 | 1.97 | 14.2 | 1 to 5.5
